Data on four molecules can be found in PMC3914206.

Assay [1] has as its target T1, panel of 442 kinases (Homo sapiens, UniProt Q6PHR2).
T1 construct: purchased KINOMEscan
T1 sequence (Q6PHR2 1-472): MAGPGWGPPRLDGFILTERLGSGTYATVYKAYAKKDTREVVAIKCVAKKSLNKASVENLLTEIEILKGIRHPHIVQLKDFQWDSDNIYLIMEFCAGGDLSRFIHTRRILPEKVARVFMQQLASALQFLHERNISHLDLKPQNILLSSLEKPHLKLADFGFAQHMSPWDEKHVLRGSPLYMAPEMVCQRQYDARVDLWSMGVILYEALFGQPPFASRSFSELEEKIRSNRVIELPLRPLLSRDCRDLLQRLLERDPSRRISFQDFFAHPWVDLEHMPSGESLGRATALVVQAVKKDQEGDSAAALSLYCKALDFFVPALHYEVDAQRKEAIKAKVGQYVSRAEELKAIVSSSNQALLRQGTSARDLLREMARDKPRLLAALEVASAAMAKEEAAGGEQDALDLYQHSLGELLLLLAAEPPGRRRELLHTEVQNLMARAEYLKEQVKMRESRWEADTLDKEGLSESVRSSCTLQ
It is filed as binding. The conditions noted are these: kinase ULK3; compound concentration 10 µM. The source says: (§1) We assessed the selectivity of members of this scaffold using the KINOMEscan methodology across a near comprehensive panel of 442 kinases [[18,27]].

Assay [2] concerns the target T2, panel of 442 kinases (Homo sapiens, UniProt P42681).
T2 construct: purchased KINOMEscan
T2 sequence (P42681 1-527): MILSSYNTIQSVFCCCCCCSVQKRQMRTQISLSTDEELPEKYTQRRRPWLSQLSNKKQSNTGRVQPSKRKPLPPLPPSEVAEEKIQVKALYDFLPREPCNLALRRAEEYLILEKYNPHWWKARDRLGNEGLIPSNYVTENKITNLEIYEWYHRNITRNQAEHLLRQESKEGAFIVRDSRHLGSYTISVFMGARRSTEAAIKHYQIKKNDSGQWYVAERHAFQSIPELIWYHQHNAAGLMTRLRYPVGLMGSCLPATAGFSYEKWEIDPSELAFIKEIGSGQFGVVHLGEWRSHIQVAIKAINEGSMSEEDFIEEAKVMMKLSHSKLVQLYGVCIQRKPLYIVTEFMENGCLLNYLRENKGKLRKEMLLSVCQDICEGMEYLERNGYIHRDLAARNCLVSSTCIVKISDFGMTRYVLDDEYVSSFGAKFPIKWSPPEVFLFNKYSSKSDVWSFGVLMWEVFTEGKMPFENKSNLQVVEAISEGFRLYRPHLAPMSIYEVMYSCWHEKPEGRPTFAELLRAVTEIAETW
It is filed as binding. The conditions noted are these: kinase TXK; compound concentration 10 µM.
Excerpt: as §1

On to `COc1cc(C(=O)N2CCC(N3CCN(C)CC3)CC2)ccc1Nc1ncc2c(n1)N(C)c1ccccc1C(=O)N2C` [15 (LRRK2-IN-1)], for which the “% Ctrl, ULK3” value in assay [1] was 100 % Ctrl. In addition, the “% Ctrl, TXK” value in assay [2] came out at 91 % Ctrl.
On the same counts, the results for `COc1cc(C(=O)N2CCC(N3CCN(C)CC3)CC2)ccc1Nc1ncc2c(n1)N1CCc3cccc(c31)C(=O)N2C` [Compound 24] are 100 % Ctrl and 93 % Ctrl.
On the same counts, the results for `COc1cc(C(=O)N2CCC(N3CCN(C)CC3)CC2)ccc1Nc1ncc2c(n1)N(C1CCCC1)c1ccccc1C(=O)N2C` [Compound 25, 11-cyclopentyl-2-((2-methoxy-4-(4-(4-methylpiperazin-1-yl)piperidine-1-carbonyl)phenyl)amino)-5-methyl-5H-benzo[e]pyrimido[5,4-b][1,4]diazepin-6(11H)-one] are 100 % Ctrl and 95 % Ctrl.
On the same counts, the results for `CCOc1cc(C(=O)N2CCC(N3CCN(C)CC3)CC2)ccc1Nc1ncc2c(n1)N(C1CCCC1)c1ccccc1C(=O)N2C` [Compound 26] are 100 % Ctrl and 100 % Ctrl.
